Data from US8916516B2, “Treatment of fungal and/or protist infections” (AI2 Limited, priority 2005, dated 2014).
No end group written: not given here.

Experiments:
Type in all cases: cell-based
[1] = tested on: Aspergillus fumigatus AF293 (NCPF7367); experiment: microbe, parasite or virus in culture; conditions: Aspergillus fumigatus 293; peptides; Tables 4 and 5
Procedure: (§1) Four compounds were supplied as an aqueous solution, 400 μM. Serial dilutions of each test peptide were prepared in addition to a control, which was a conventional antifungal drug, Amphoteracin B. Amphteracin B is obtained from Invitrogen or Melford laboratories.
(§2) Initial testing of the peptides was carried out against the following organisms: • 1) Aspergillus fumigatus AF293 (culture collection strain NCPF7367) • 2) Candida albicans 6862 (clinical isolate) • 3) Fusarium spp 5889 (clinical isolate) • 4) Fusarium spp 6507 (clinical isolate) • 5) Aspergillus terreus (clinical isolate) • 6) Aspergillus niger (clinical isolate) • 7) Staphylococcus aureus (Oxford strain, which is a standard reference strain used in MIC testing)
The bacterium S. aureus was tested with each of the peptides as a control. A suspension of each organism in an appropriate growth medium was added to the, dilutions of the peptides in order to give concentration ranges of 40 μM to 0.04 μM for each of the peptides, and 64-0.025 μg/ml for amphotericin B. Fungal strains were tested in RPMI media. RPMI is standard Roswell Park Memorial Institute medium (Morton, H. C., (1970) A survey of Commercially Available Tissue Culture Media. In Vitro 6: 89-108).
The final inoculum for S. aureus was 5×10^4 cfu/ml. The final inoculum for C. albicans was 2×10^3 cfu/ml. The final inoculum for Aspergillus fumigatus and for Fusarium spp was 2×10^4 cfu/ml.
(§3) Candida and S. aureus plates were read after 24 hrs incubation and the Aspergillus and Fusarium strains read after 48 hrs. The MIC was taken as the lowest drug or compound concentration that caused >80% reduction in growth compared with a drug free control.
Aspergillus fumigatus 293 (AF); and
FS1-FS4 were obtained from Bristol PHLS (British Public Health Laboratory Service UK). Aspergillus fumigatus 293 is publicly available as culture collection strain NCPF7367 (National Collection of Pathogenic Fungi Public Health Laboratory, Mycological Reference Laboratory Myrtle Road, Kingsdown, Bristol BS2 8EL) The Candida albicans was a clinical isolate obtained by standard means. […]

Fusarium solani 1 (FS1) = experiment: Antifungal MIC (Example 4); conditions: Fusarium solani 1; peptides; Tables 4 and 5
Procedure: (§4) The inventor expanded the work conducted in Example 1 by testing an expanded library of peptides derived from either apolipoprotein B or apolipoprotein E in order to further evaluate polypeptides in accordance with the invention. These experiments were conducted using the following fungal species:
(§5) FS1-FS4 were obtained from Bristol PHLS (British Public Health Laboratory Service UK). Aspergillus fumigatus 293 is publicly available as culture collection strain NCPF7367 (National Collection of Pathogenic Fungi Public Health Laboratory, Mycological Reference Laboratory Myrtle Road, Kingsdown, Bristol BS2 8EL) The Candida albicans was a clinical isolate obtained by standard means.
(§6) The methods used to determine, the IC50 values for each peptide were as described in the Example 1.

Fusarium solani 2 (FS2) = experiment: Antifungal MIC (Example 4); conditions: Fusarium solani 2; peptides; Tables 4 and 5
Procedure: as §4, §5, §6

Fusarium solani 3 (FS3) = experiment: Antifungal MIC (Example 4); conditions: Fusarium solani 3; peptides; Tables 4 and 5
Procedure: as §4, §5, §6

Fusarium solani 4 (FS4) = experiment: Antifungal MIC (Example 4); conditions: Fusarium solani 4; peptides; Tables 4 and 5
Procedure: as §4, §5, §6

[2] = tested on: Candida albicans (CA), clinical isolate; experiment: Antifungal MIC (Example 4); conditions: peptides, Tables 4 and 5
Procedure: as §4, §5, §6

fungi = conditions: overall statement on the fungi tested
Procedure: as §1, §2
The bacterium S. aureus was tested with each of the peptides as a control. […] RPMI is standard Roswell Park Memorial Institute medium (Morton, H. C., (1970) A survey of Commercially Available Tissue Culture Media. In Vitro 6: 89-108).
as §3, §6

CRKCRKRCCCRKCRKRCC (Artficial polypeptide designated MU 12) [MU_12]
MIC values (>80% reduction) AF [1]: 40 µM
MIC values (>80% reduction) FS1 (Fusarium solani 1 (FS1)): 2.5 µM
MIC values (>80% reduction) FS2 (Fusarium solani 2 (FS2)): 5 µM
MIC values (>80% reduction) FS3 (Fusarium solani 3 (FS3)): 10 µM
MIC values (>80% reduction) FS4 (Fusarium solani 4 (FS4)): 5 µM
MIC values (>80% reduction) CA [2]: >40 µM
antifungal activity (in words) (fungi): particularly effective antifungal peptides

KRKKRKRKKKRKKRKRKK (Artificial polypeptide designated MU 18) [MU_18, 85]
MIC values (>80% reduction) AF [1]: >40 µM
MIC values (>80% reduction) FS1 (Fusarium solani 1 (FS1)): 2.5 µM
MIC values (>80% reduction) FS2 (Fusarium solani 2 (FS2)): 10 µM
MIC values (>80% reduction) FS3 (Fusarium solani 3 (FS3)): 2.5 µM
MIC values (>80% reduction) FS4 (Fusarium solani 4 (FS4)): >40 µM
MIC values (>80% reduction) CA [2]: >40 µM
antifungal activity (in words) (fungi): particularly effective antifungal peptides

LRKLRKRLL (listed as Homo sapiens) [apoE141-149, monomeric 9-mer of apolipoprotein E, reference compound]
antifungal activity (in words) (fungi): no detectable antifungal activity

QRKQRKRQQQRKQRKRQQ (Artificial polypeptide designated MU 9) [MU_9, 79]
MIC values (>80% reduction) AF [1]: >40 µM
MIC values (>80% reduction) FS1 (Fusarium solani 1 (FS1)): >40 µM
MIC values (>80% reduction) FS2 (Fusarium solani 2 (FS2)): >40 µM
MIC values (>80% reduction) FS3 (Fusarium solani 3 (FS3)): >40 µM
MIC values (>80% reduction) FS4 (Fusarium solani 4 (FS4)): >40 µM
MIC values (>80% reduction) CA [2]: >40 µM

RLTRKRGLK (listed as Homo sapiens) [apoB3359-3367, monomeric 9-mer of apolipoprotein B, reference compound]
antifungal activity (in words) (fungi): no detectable antifungal activity

RRKRRKRRRRRKRRKRRR (Artificial polypeptide designated MU 16) [MU_16]
MIC values (>80% reduction) AF [1]: 40 µM
MIC values (>80% reduction) FS1 (Fusarium solani 1 (FS1)): 1.25 µM
MIC values (>80% reduction) FS2 (Fusarium solani 2 (FS2)): 1.25 µM
MIC values (>80% reduction) FS3 (Fusarium solani 3 (FS3)): 1.25 µM
MIC values (>80% reduction) FS4 (Fusarium solani 4 (FS4)): 2.5 µM
MIC values (>80% reduction) CA [2]: 10 µM
antifungal activity (in words) (fungi): particularly effective antifungal peptides

SRKSRKRSSSRKSRKRSS (Artificial polypeptide designated MU 13) [MU_13, 81]
MIC values (>80% reduction) AF [1]: >40 µM
MIC values (>80% reduction) FS1 (Fusarium solani 1 (FS1)): >40 µM
MIC values (>80% reduction) FS2 (Fusarium solani 2 (FS2)): >40 µM
MIC values (>80% reduction) FS3 (Fusarium solani 3 (FS3)): >40 µM
MIC values (>80% reduction) FS4 (Fusarium solani 4 (FS4)): >40 µM
MIC values (>80% reduction) CA [2]: >40 µM

TRKTRKRTTTRKTRKRTT (Artificial polypeptide designated MU 15) [MU_15, 83]
MIC values (>80% reduction) AF [1]: >40 µM
MIC values (>80% reduction) FS1 (Fusarium solani 1 (FS1)): >40 µM
MIC values (>80% reduction) FS2 (Fusarium solani 2 (FS2)): >40 µM
MIC values (>80% reduction) FS3 (Fusarium solani 3 (FS3)): >40 µM
MIC values (>80% reduction) FS4 (Fusarium solani 4 (FS4)): >40 µM
MIC values (>80% reduction) CA [2]: >40 µM

VRKVRKRVVVRKVRKRVV (Artificial polypeptide designated MU 14) [MU_14, 82]
MIC values (>80% reduction) AF [1]: >40 µM
MIC values (>80% reduction) FS1 (Fusarium solani 1 (FS1)): >40 µM
MIC values (>80% reduction) FS2 (Fusarium solani 2 (FS2)): >40 µM
MIC values (>80% reduction) FS3 (Fusarium solani 3 (FS3)): >40 µM
MIC values (>80% reduction) FS4 (Fusarium solani 4 (FS4)): >40 µM
MIC values (>80% reduction) CA [2]: >40 µM

WRKWRKRWWLRKLRKRLL (Artificial polypeptide designated GIN 34)
MIC values (>80% reduction) AF [1]: 40 µM
MIC values (>80% reduction) FS1 (Fusarium solani 1 (FS1)): 1.25 µM
MIC values (>80% reduction) FS2 (Fusarium solani 2 (FS2)): 0.6 µM
MIC values (>80% reduction) FS3 (Fusarium solani 3 (FS3)): 1.25 µM
MIC values (>80% reduction) FS4 (Fusarium solani 4 (FS4)): 12.5 µM
MIC values (>80% reduction) CA [2]: 10 µM

modified apoB3359-3367: SEQ ID No. 7; modified form of the apoB3359-3367 9-mer, sequence shown only in Table 1 drawing (LRTRKRGRK; not fully specified) [reference compound]
antifungal activity (in words) (fungi): no detectable antifungal activity
